Reference: ChEMBL document CHEMBL5620352, “Discovery of highly potent and selective VEGFR2 kinase inhibitors for the treatment of rheumatoid arthritis” (Eur J Med Chem, 2023)

Key:
Type in all cases: ADME, organism-based
[1] = Oral bioavailability in Sprague-Dawley rat at 10 mg/kg measured upto 24 hrs by LC-MS/MS analysis; settings: in vivo
[2] = Apparent volume of distribution in Sprague-Dawley rat at 1 mg/kg, iv measured upto 24 hrs by LC-MS/MS analysis; settings: in vivo, read-out: Vz
[3] = Cmax in Sprague-Dawley rat at 10 mg/kg, po measured upto 24 hrs by LC-MS/MS analysis; settings: in vivo
[4] = Apparent volume of distribution in Sprague-Dawley rat at 10 mg/kg, po measured upto 24 hrs by LC-MS/MS analysis; settings: in vivo
[5] = Apparent clearance in Sprague-Dawley rat at 1 mg/kg, iv measured upto 24 hrs by LC-MS/MS analysis; settings: in vivo, read-out: CL(app) (converted)
[6] = AUC(0 to infinity) in Sprague-Dawley rat at 10 mg/kg, po measured upto 24 hrs by LC-MS/MS analysis; settings: in vivo
[7] = Half life in Sprague-Dawley rat at 10 mg/kg, po measured upto 24 hrs by LC-MS/MS analysis; settings: in vivo
[8] = Apparent clearance in Sprague-Dawley rat at 10 mg/kg, po measured upto 24 hrs by LC-MS/MS analysis; settings: in vivo, read-out: CL(app) (converted)
[9] = Cmax in Sprague-Dawley rat at 1 mg/kg, iv measured upto 24 hrs by LC-MS/MS analysis; settings: in vivo
[10] = AUC(0 to infinity) in Sprague-Dawley rat at 1 mg/kg, iv measured upto 24 hrs by LC-MS/MS analysis; settings: in vivo
[11] = Half life in Sprague-Dawley rat at 1 mg/kg, iv measured upto 24 hrs by LC-MS/MS analysis; settings: in vivo

bioavailability [1]: 15%
Vd [2]: 2.16 L/kg
Cmax [3]: 113 ng/mL
Vz [4]: 39752 mL/kg
clearance [5]: 96 mL/min/kg
AUC(0-inf) [6]: 274 ng·h/mL
half-life [7]: 47.4 min
CL/F [8]: 657 mL/min/kg
Cmax [9]: 689 ng/mL
AUC(0-inf) [10]: 175 ng·h/mL
half-life [11]: 16.8 min
Structure (SMILES): COc1cccc(C(=O)Nc2cccc(Sc3ccc4c(NC(C)=O)n[nH]c4c3)c2)c1
